Source: paper PMC10808720 (Frontiers in Pharmacology, 2024)

Tests used:
HAdV5-GFP = experiment: microbe, parasite or virus in culture; assay type: cell-based, human adenovirus (HAdV5); settings: Human adenovirus sp.
Method: Compounds were tested using low MOI infections (0.06 vp/cell), initially at concentrations of 10 μM and subsequently in a dose-response assay ranging from 10 μM to 2.44 nM in a plaque assay. Briefly, 293β5 cells were seeded in 6-well plates at a density of 1 × 10^6 cells per well in duplicate for each condition. When the cells reached 80%–90% confluency, they were infected with HAdV5-GFP and rocked for 2 h at 37°C. After the incubation, the inoculum was removed and the cells were washed once with PBS. Cells were then carefully overlaid with equal parts of 4 mL/well 1.6% ([…]) Difco Agar Noble (Becton, Dickinson & Co., Sparks, MD, USA) and 2× Eagle’s Minimum Essential Medium (EMEM; BioWhittaker) supplemented with 2×penicillin/streptomycin, 2× L-glutamine, and 10% FBS. The mixture also contained the compounds in the concentration ranges described above. Following incubation for 7 days at 37°C, plates were scanned with a Typhoon FLA 9000 imager (GE Healthcare Life Sciences) and the formed plaques were quantified with ImageJ ([Schneider et al., 2012]). Plaque counting was performed to calculate the 50% inhibitory concentration (IC50) of each compound using the statistical software GraphPad Prism 6.

[1] = Cytotoxicity assay (AlamarBlue); assay type: cell-based, Human; settings: human, A549 cells
Method: The cytotoxicity of the molecules was analyzed using the commercial kit AlamarBlue® (Invitrogen, Ref. DAL1025) according to the manufacturer’s instructions. Briefly, A549 cells were seeded at a density of 5 × 10^3 cells per well in 96-well plates, and decreasing serial dilutions of each molecule were diluted in 100 μL of DMEM starting at 200 μM. The cells were then incubated at 37°C for 48 h following the manufacturer’s protocol. The cytotoxic concentration 50% (CC50) value was obtained using the statistical software GraphPad Prism 6. The assay was performed in duplicate.

wild-type HAdV5 [2] = experiment: HAdV DNA quantification by qPCR; assay type: cell-based, human adenovirus (HAdV5); settings: 10-fold IC50; A549; 24 h; vs DMSO control
Method: For DNA quantification, A549 cells (1.5 × 10^5 cells/well in a 24-well plate) were incubated for 24 h in 500 μL of complete DMEM and were infected with wild-type HAdV5 (MOI 100 vp/cell) after observing more than 90% of confluency. Infected cells were incubated for 24 h at 37°C in 500 μL of either complete DMEM containing 10-fold IC50 concentration of the compounds obtained in the plaque assay or the same volume of DMSO (positive control). All samples were prepared in duplicate. After 24 h of incubation at 37°C, DNA was purified from the cell lysate with the E.Z.N.A.® Tissue DNA Kit (Omega Bio-tek, Norcross, GA) following the manufacturer’s instructions. PCR conditions, primers, and probes were as described by [Henke-Gendo et al. (2012)]. Human glyceraldehyde-3-phosphate dehydrogenase (GAPDH) gene was used as an internal control. GAPDH oligonucleotide sequences and conditions were as previously described by [Rivera et al. (2004)].
For quantification, gene fragments from hexons, and GAPDH were cloned into the pGEM-T Easy vector (Promega) and known concentrations of the template were used to generate a standard curve in parallel for each experiment, as previously reported ([Sanchez-Cespedes et al., 2016]). All assays were performed in thermal cycler LightCycler® 96 System (Roche).

wild-type HAdV5 [3] = experiment: Nuclear-associated HAdV genomes (qPCR after nuclear isolation); assay type: cell-based, human adenovirus (HAdV5); settings: 10-fold IC50; 45 min after synchronized infection; A549
Method: Nuclear delivery of HAdV genomes was assessed using qPCR following nuclear isolation from infected cells. Briefly, 1 × 10^6 A549 cells in 6-well plates were infected either with wild-type HAdV5 at an MOI of 2,000 vp/cell in the presence of a 10-fold IC50 concentration of the compounds obtained in the plaque assay or the same volume of DMSO as the positive control. Forty-five minutes after infection, the A549 cells were trypsinized, collected, and washed twice with PBS. The cell pellet was resuspended in 500 μL of 1×hypotonic buffer (20 mM Tris-HCl pH 7.4, 10 mM NaCl, 3 mM MgCl2) and incubated for 15 min at 4°C. Then, 25 μL of NP-40 was added and the samples were vortexed. The homogenates were centrifuged for 10 min at 835 g at 4°C. Following the removal of the cytoplasmic fraction (supernatant), HAdV DNA was isolated from the nuclear (pellet) and cytoplasmic fractions using the E.Z.N.A.® Tissue DNA Kit (Omega Bio-tek, Norcross, GA).

HCMV = experiment: Impact on HCMV replication (qPCR of HCMV DNA in HFF); assay type: cell-based, human cytomegalovirus; settings: 2-fold IC50 (HAdV plaque assay), 72 h
Method: To test the anti-HCMV activity of these rotenolone-related compounds, human foreskin fibroblasts (HFF; ATCC, Manassas, VA) were seeded in a 24-well plate (8.3 × 10^4 cells/well), infected with HCMV (MOI 0.05 vp/cell), and incubated in complete DMEM in the presence of either 2-fold IC50 concentration of each compound obtained in the plaque assay against HAdV or the same volume of DMSO (positive control) in duplicate. The cells were incubated for 72 h at 37°C and 5% CO2 and HCMV DNA was purified from the cell lysate using E.Z.N.A Tissue DNA Kit (Omega Biotek, Norcross, GA, USA) following the manufacturer’s instructions. The qPCR primers, conditions, and protocols were the same as previously reported ([Mazzotta et al., 2020b]).

[4] = animals; ref Ray et al., 1991; Vats, 2018; Vats and Mehre, 2020; cited from earlier work

## C=C(C)[C@H]1Cc2c(ccc3c2O[C@@H]2COc4cc(OC)c(OC)cc4[C@@H]2C3=O)O1 [Rotenone, (2R,6aS,12aS)-8,9-dimethoxy-2-(prop-1-en-2-yl)-1,2,12,12a-tetrahydrochromeno[3,4-b]furo[2,3-h]chromen-6-(6aH)-one]
HAdV5-GFP; 168 h, read-out: IC50 plaque assay
  IC50: 3.9 ± 0.1 nM
HAdV5-GFP; read-out: inhibition of plaque formation
  inhibition at 0.004 µM: 67.8%
[1]
  CC50 at 48 h: 600 ± 200 nM
wild-type HAdV5 [2]
  HAdV DNA copy number (de novo synthesis): significant decrease
wild-type HAdV5 [3]
  accessibility of HAdV genomes to the nucleus: significantly blocked
HCMV
  inhibition of HCMV replication: 92.1%
[4]
  estimated lethal dose: 300 to 500 mg/kg
